# Results from the supplement of paper PMC10307832.
# Columns and labels:
# Assay in all cases: relative viability (nuclei count vs DMSO), 5 days (fraction); higher = more cells survive
# NCI-H2009 = tested on: NCI-H2009
# Procedure, shortened: (§1)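 Relative viability divides the nuclei count in treated wells by that in vehicle wells. Lung cancer cell lines were seeded in 1536-well plates, dosed by pin tool the next day, and fixed and stained after 5 days in one step with final 0.05% Triton X-100, 1% formaldehyde and 1 ug/ml Hoechst. Dosing was a single drug or a fixed anchor-drug dose plus five library-drug doses (not always all listed) in √10 steps, and values are medians of duplicate plates imaged at 4×.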
# NCI-H838 = tested on: NCI-H838
# Procedure, shortened: as §1
# PC-3 [JPC-3] = tested on: PC-3 [JPC-3]
# Procedure, shortened: as §1
# NCI-H2405 = tested on: NCI-H2405
# Procedure, shortened: as §1
# SW 1573 = tested on: SW 1573
# Procedure, shortened: as §1
# NCI-H1355 = tested on: NCI-H1355
# Procedure, shortened: as §1
# NCI-H520 = tested on: NCI-H520
# Procedure, shortened: as §1
# NCI-H2126 = tested on: NCI-H2126
# Procedure, shortened: as §1
# UMC-11 = tested on: UMC-11
# Procedure, shortened: as §1
# NCI-H1437 = tested on: NCI-H1437
# Procedure, shortened: as §1
# LU99A = tested on: LU99A
# Procedure, shortened: as §1
# HARA = tested on: HARA
# Procedure, shortened: as §1
# NCI-H2347 = tested on: NCI-H2347
# Procedure, shortened: as §1
# NCI-H441 = tested on: NCI-H441
# Procedure, shortened: as §1
# NCI-H1734 = tested on: NCI-H1734
# Procedure, shortened: as §1
# HCC-44 = tested on: HCC-44
# Procedure, shortened: as §1
# NCI-H358 = tested on: NCI-H358
# Procedure, shortened: as §1
# BEN = tested on: BEN
# Procedure, shortened: as §1
# NCI-H727 = tested on: NCI-H727
# Procedure, shortened: as §1
# 201T = tested on: 201T
# Procedure, shortened: as §1
structure (smiles),measurement,setting,value
COCC1(CO)C(=O)C2CCN1CC2 (stereo unspecified) [PRIMA-1MET] + CCNC(=O)c1noc(-c2cc(C(C)C)c(O)cc2O)c1-c1ccc(CN2CCOCC2)cc1 [Luminespib] (partner 0.01 µM),relative viability,NCI-H2009; first compound 0.2 µM,0.981
same,relative viability,NCI-H2009; first compound 0.6325 µM,0.97
same,relative viability,NCI-H2009; first compound 2 µM,1.1
same,relative viability,NCI-H2009; first compound 6.325 µM,1.04
same,relative viability,NCI-H2009; first compound 20 µM,0.307
same,relative viability,NCI-H838; first compound 0.2 µM,0.315
same,relative viability,NCI-H838; first compound 0.6325 µM,0.194
same,relative viability,NCI-H838; first compound 2 µM,0.298
same,relative viability,NCI-H838; first compound 6.325 µM,0.284
same,relative viability,NCI-H838; first compound 20 µM,0.189
same,relative viability,PC-3 [JPC-3]; first compound 0.2 µM,0.849
same,relative viability,PC-3 [JPC-3]; first compound 0.6325 µM,0.649
same,relative viability,PC-3 [JPC-3]; first compound 2 µM,0.679
same,relative viability,PC-3 [JPC-3]; first compound 6.325 µM,0.731
same,relative viability,PC-3 [JPC-3]; first compound 20 µM,0.546
same,relative viability,NCI-H2405; first compound 0.2 µM,0.65
same,relative viability,NCI-H2405; first compound 0.6325 µM,0.598
same,relative viability,NCI-H2405; first compound 6.325 µM,0.688
same,relative viability,NCI-H2405; first compound 20 µM,0.249
same,relative viability,SW 1573; first compound 0.2 µM,0.233
same,relative viability,SW 1573; first compound 2 µM,0.214
same,relative viability,SW 1573; first compound 6.325 µM,0.0379
same,relative viability,SW 1573; first compound 20 µM,0.0227
same,relative viability,NCI-H1355; first compound 0.2 µM,0.859
same,relative viability,NCI-H1355; first compound 0.6325 µM,0.556
same,relative viability,NCI-H1355; first compound 2 µM,0.695
same,relative viability,NCI-H1355; first compound 6.325 µM,0.734
same,relative viability,NCI-H1355; first compound 20 µM,0.673
same,relative viability,NCI-H520; first compound 0.2 µM,0.214
same,relative viability,NCI-H520; first compound 0.6325 µM,0.215
same,relative viability,NCI-H520; first compound 2 µM,0.186
same,relative viability,NCI-H520; first compound 6.325 µM,0.2
same,relative viability,NCI-H520; first compound 20 µM,0.203
same,relative viability,NCI-H2126; first compound 0.2 µM,0.963
same,relative viability,NCI-H2126; first compound 0.6325 µM,0.867
same,relative viability,NCI-H2126; first compound 2 µM,0.89
same,relative viability,NCI-H2126; first compound 6.325 µM,0.929
same,relative viability,NCI-H2126; first compound 20 µM,0.885
same,relative viability,UMC-11; first compound 0.2 µM,1.06
same,relative viability,UMC-11; first compound 0.6325 µM,0.818
same,relative viability,UMC-11; first compound 2 µM,0.978
same,relative viability,UMC-11; first compound 6.325 µM,0.988
same,relative viability,UMC-11; first compound 20 µM,0.917
same,relative viability,NCI-H1437; first compound 0.2 µM,1.18
same,relative viability,NCI-H1437; first compound 0.6325 µM,1.08
same,relative viability,NCI-H1437; first compound 2 µM,1.09
same,relative viability,NCI-H1437; first compound 6.325 µM,1.16
same,relative viability,NCI-H1437; first compound 20 µM,1.01
same,relative viability,LU99A; first compound 0.2 µM,0.216
same,relative viability,LU99A; first compound 0.6325 µM,0.233
same,relative viability,LU99A; first compound 2 µM,0.203
same,relative viability,LU99A; first compound 6.325 µM,0.221
same,relative viability,LU99A; first compound 20 µM,0.0965
same,relative viability,HARA; first compound 0.2 µM,0.619
same,relative viability,HARA; first compound 0.6325 µM,0.0534
same,relative viability,HARA; first compound 6.325 µM,0.675
same,relative viability,HARA; first compound 20 µM,0.654
same,relative viability,NCI-H2347; first compound 0.2 µM,0.262
same,relative viability,NCI-H2347; first compound 0.6325 µM,0.403
same,relative viability,NCI-H2347; first compound 2 µM,0.174
same,relative viability,NCI-H2347; first compound 6.325 µM,0.386
same,relative viability,NCI-H2347; first compound 20 µM,0.349
same,relative viability,NCI-H441; first compound 0.2 µM,0.437
same,relative viability,NCI-H441; first compound 0.6325 µM,0.334
same,relative viability,NCI-H441; first compound 2 µM,0.276
same,relative viability,NCI-H441; first compound 6.325 µM,0.365
same,relative viability,NCI-H441; first compound 20 µM,0.277
same,relative viability,NCI-H1734; first compound 0.2 µM,0.214
same,relative viability,NCI-H1734; first compound 0.6325 µM,0.18
same,relative viability,NCI-H1734; first compound 2 µM,0.192
same,relative viability,NCI-H1734; first compound 6.325 µM,0.172
same,relative viability,NCI-H1734; first compound 20 µM,0.0435
same,relative viability,HCC-44; first compound 0.2 µM,1.36
same,relative viability,HCC-44; first compound 0.6325 µM,0.964
same,relative viability,HCC-44; first compound 2 µM,0.817
same,relative viability,HCC-44; first compound 6.325 µM,1.14
same,relative viability,HCC-44; first compound 20 µM,0.896
same,relative viability,NCI-H358; first compound 0.2 µM,0.314
same,relative viability,NCI-H358; first compound 0.6325 µM,0.312
same,relative viability,NCI-H358; first compound 2 µM,0.354
same,relative viability,NCI-H358; first compound 6.325 µM,0.416
same,relative viability,NCI-H358; first compound 20 µM,0.287
same,relative viability,BEN; first compound 0.2 µM,0.35
same,relative viability,BEN; first compound 0.6325 µM,0.276
same,relative viability,BEN; first compound 6.325 µM,0.24
same,relative viability,BEN; first compound 20 µM,0.18
same,relative viability,NCI-H727; first compound 0.2 µM,0.615
same,relative viability,NCI-H727; first compound 0.6325 µM,0.328
same,relative viability,NCI-H727; first compound 2 µM,0.236
same,relative viability,NCI-H727; first compound 6.325 µM,0.426
same,relative viability,NCI-H727; first compound 20 µM,0.213
same,relative viability,201T; first compound 0.2 µM,1.17
same,relative viability,201T; first compound 0.6325 µM,0.937
same,relative viability,201T; first compound 2 µM,0.926
same,relative viability,201T; first compound 6.325 µM,1.05
same,relative viability,201T; first compound 20 µM,1.06
